Patent publication US11919901B2 (Syndax Pharmaceuticals, Inc., priority 2021, dated 2024)
Like-named read-outs stand apart in the source and are kept apart here.

Tests used:
hERG = hERG (Homo sapiens (Human), UniProt Q12809); assay: Patch clamp assay (hERG tail currents, whole-cell); assay type: cell-based; conditions: hERG transfected HEK 293 cells; for hERG % Remaining 10 μM: 10 μM compound; for hERG % Remaining 30 μM: 30 μM compound
Menin-MLL = Menin-MLL (Homo sapiens (Human), UniProt O00255); assay: Determination of binding constants (Ki) to Menin-MLL (HTRF)
Menin-MLL, sequence (O00255 whole entry): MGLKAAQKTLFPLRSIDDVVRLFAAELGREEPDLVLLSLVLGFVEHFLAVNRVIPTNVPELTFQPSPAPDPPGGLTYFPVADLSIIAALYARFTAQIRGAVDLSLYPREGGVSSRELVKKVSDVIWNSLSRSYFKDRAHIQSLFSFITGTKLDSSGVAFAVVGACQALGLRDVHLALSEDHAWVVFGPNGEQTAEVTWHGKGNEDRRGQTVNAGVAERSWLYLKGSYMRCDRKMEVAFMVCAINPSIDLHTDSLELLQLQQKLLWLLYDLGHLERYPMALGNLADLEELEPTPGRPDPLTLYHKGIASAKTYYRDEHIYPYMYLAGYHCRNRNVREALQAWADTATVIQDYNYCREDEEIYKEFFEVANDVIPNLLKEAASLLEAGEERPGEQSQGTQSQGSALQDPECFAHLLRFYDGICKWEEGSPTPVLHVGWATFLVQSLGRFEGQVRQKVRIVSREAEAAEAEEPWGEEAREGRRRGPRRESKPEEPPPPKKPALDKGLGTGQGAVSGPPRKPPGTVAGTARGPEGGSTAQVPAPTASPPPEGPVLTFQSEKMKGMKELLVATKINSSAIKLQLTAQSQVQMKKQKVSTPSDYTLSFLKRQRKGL

[1] = HTRF, 0.25 nM H-FL-Menin, 3.2 nM FITC-MLL-4-43, 24 hr incubation
[2] = HTRF, 0.25 nM H-FL-Menin, 3.2 nM FITC-MLL-4-43, 24 hr incubation, read-out: Menin-MLL Ki HTRF Assay: Ki

hERG, sequence (Q12809 whole entry): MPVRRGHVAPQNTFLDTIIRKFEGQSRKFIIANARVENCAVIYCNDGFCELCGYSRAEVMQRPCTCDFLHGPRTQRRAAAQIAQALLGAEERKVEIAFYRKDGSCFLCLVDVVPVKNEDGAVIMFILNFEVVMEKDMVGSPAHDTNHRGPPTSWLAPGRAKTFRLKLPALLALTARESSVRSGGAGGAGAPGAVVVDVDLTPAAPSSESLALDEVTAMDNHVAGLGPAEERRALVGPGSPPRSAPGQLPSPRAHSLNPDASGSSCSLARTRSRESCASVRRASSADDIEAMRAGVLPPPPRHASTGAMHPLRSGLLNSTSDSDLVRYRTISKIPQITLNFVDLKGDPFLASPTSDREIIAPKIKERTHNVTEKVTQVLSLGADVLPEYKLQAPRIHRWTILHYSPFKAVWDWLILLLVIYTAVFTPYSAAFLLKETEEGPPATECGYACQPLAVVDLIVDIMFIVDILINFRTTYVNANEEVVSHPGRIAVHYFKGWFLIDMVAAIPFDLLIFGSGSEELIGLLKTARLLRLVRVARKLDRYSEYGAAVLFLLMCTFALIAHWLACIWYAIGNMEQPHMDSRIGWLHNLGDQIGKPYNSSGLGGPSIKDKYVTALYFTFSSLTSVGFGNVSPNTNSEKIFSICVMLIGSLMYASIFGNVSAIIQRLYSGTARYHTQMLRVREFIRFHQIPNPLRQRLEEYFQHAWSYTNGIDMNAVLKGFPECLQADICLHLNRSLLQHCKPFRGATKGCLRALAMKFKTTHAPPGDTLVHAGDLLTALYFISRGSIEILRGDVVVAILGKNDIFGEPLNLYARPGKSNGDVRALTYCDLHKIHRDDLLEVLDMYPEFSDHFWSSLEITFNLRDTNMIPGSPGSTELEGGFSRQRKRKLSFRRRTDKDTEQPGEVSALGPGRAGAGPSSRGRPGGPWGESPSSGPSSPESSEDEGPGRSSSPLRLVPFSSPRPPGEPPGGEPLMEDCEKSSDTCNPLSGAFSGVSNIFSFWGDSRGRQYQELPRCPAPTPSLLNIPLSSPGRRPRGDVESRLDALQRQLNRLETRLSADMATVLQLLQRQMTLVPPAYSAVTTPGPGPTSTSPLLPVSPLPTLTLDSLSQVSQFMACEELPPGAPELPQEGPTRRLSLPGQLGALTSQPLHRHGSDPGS

With `CCS(=O)(=O)N[C@@H]1CC[C@@H](CN2CCC3(CC2)CN(c2ncncc2Oc2ccc(F)cc2C(=O)N(C(C)C)C(C)C)C3)OC1` [Compound 13, 2-((4-(7-(((2S,5R)-5-(ethylsulfonamido)tetrahydro-2H-pyran-2-yl)methyl)-2,7-diazaspiro[3.5]nonan-2-yl)pyrimidin-5-yl)oxy)-5-fluoro-N,N-diisopropylbenzamide] the “hERG % Remaining 1 μM” value (hERG; 1 μM compound) was “+++ (“+++” means ≥66%)”, the “hERG % Remaining 3 μM” value (hERG; 3 μM compound) was “+++ (“+++” means ≥66%)” and the “hERG % Remaining 10 μM” value (hERG) was “+++ (“+++” means ≥66%)”. The “hERG % Remaining 30 μM” value (hERG) was “++ (“++” means ≥33% and <66%)”, the “hERG % Remaining 100 μM” value (hERG; 100 μM compound) was “++ (“++” means ≥33% and <66%)” and the IC50 (hERG) was no less than 50 µM. For the same compound, the EC50 (Menin-MLL; [1]) was less than 50 nM and the Ki (Menin-MLL; [2]) was less than 1 nM.

In the case of `CC(C)N(CC(F)F)C(=O)c1cc(F)ccc1Oc1cncnc1N1CC2(CCN(C[C@@H]3CC[C@@H](NS(=O)(=O)c4cnn(C)c4)CO3)CC2)C1` [Compound 100, N-(2,2-Difluoroethyl)-5-fluoro-N-isopropyl-2-((4-(7-(((2S,5R)-5-((1-methyl-1H-pyrazole)-4-sulfonamido)tetrahydro-2H-pyran-2-yl)methyl)-2,7-diazaspiro[3.5]nonan-2-yl)pyrimidin-5-yl)oxy)benzamide], the “hERG % Remaining 10 μM” value (hERG) is reported as “+++ (“+++” means ≥66%)”, the “hERG % Remaining 30 μM” value (hERG) is reported as “+++ (“+++” means ≥66%)” and the IC50 (hERG) is reported as no less than 50 µM. The Ki (Menin-MLL; [2]) was less than 1 nM.

With `CCN(C(=O)c1cc(F)ccc1Oc1cncnc1N1CC2(CCN(C[C@@H]3CC[C@@H](NS(=O)(=O)c4ccccc4OC)CO3)CC2)C1)C(C)C` [Compound 65, N-Ethyl-5-fluoro-N-isopropyl-2-((4-(7-(((2S,5R)-5-((2-methoxyphenyl)sulfonamido)tetrahydro-2H-pyran-2-yl)methyl)-2,7-diazaspiro[3.5]nonan-2-yl)pyrimidin-5-yl)oxy)benzamide] the “hERG % Remaining 10 μM” value (hERG) was “++ (“++” means ≥33% and <66%)”, the “hERG % Remaining 30 μM” value (hERG) was “+ (“+” means <33%)” and the EC50 (Menin-MLL; [1]) was less than 50 nM. It also gave a Ki (Menin-MLL; [2]) of less than 1 nM.

With `CO[C@@H]1CCN(S(=O)(=O)N[C@@H]2CC[C@@H](CN3CCC4(CC3)CN(c3ncncc3Oc3ccc(F)cc3C(=O)N(C(C)C)C(C)C)C4)OC2)C1` [Compound 211, 5-Fluoro-N,N-diisopropyl-2-((4-(7-(((2S,5R)-5-(((R)-3-methoxypyrrolidine)-1-sulfonamido)tetrahydro-2H-pyran-2-yl)methyl)-2,7-diazaspiro[3.5]nonan-2-yl)pyrimidin-5-yl)oxy)benzamide] the “hERG % Remaining 30 μM” value (hERG) was “+++ (“+++” means ≥66%)” and the Ki (Menin-MLL; [2]) was less than 1 nM.

For `CC(C)N(C(=O)c1cc(F)ccc1Oc1nncnc1N1CC2(CCN(C[C@@H]3CC[C@@H](NS(=O)(=O)C4CC4)CO3)CC2)C1)C(C)C` [Compound 196, 2-((5-(7-(((2S,5R)-5-(Cyclopropanesulfonamido)tetrahydro-2H-pyran-2-yl)methyl)-2,7-diazaspiro[3.5]nonan-2-yl)-1,2,4-triazin-6-yl)oxy)-5-fluoro-N,N-diisopropylbenzamide], the “hERG % Remaining 30 μM” value (hERG) was “+++ (“+++” means ≥66%)” and the Ki (Menin-MLL; [2]) was less than 1 nM.

In the case of `CC(C)N(CC(F)F)C(=O)c1cc(F)ccc1Oc1cncnc1N1CC2(CCN(C[C@@H]3CC[C@@H](NS(=O)(=O)NCC(F)F)CO3)CC2)C1` [Compound 235, N-(2,2-Difluoroethyl)-2-((4-(7-(((2S,5R)-5-((N-(2,2-difluoroethyl)sulfamoyl)amino)tetrahydro-2H-pyran-2-yl)methyl)-2,7-diazaspiro[3.5]nonan-2-yl)pyrimidin-5-yl)oxy)-5-fluoro-N-isopropylbenzamide], the “hERG % Remaining 30 μM” value (hERG) is reported as “+++ (“+++” means ≥66%)” and the Ki (Menin-MLL) is reported as less than 1 nM.

For `CCNS(=O)(=O)N[C@@H]1CC[C@@H](CN2CCC3(CC2)CN(c2ncncc2Oc2ccc(F)cc2C(=O)N(CC(F)(F)F)C(C)C)C3)OC1` [Compound 153, 2-((4-(7-(((2S,5R)-5-((N-Ethylsulfamoyl)amino)tetrahydro-2H-pyran-2-yl)methyl)-2,7-diazaspiro[3.5]nonan-2-yl)pyrimidin-5-yl)oxy)-5-fluoro-N-isopropyl-N-(2,2,2-trifluoroethyl)benzamide], the “hERG % Remaining 30 μM” value (hERG) was “+++ (“+++” means ≥66%)”, the IC50 (hERG) was no less than 50 µM and the Ki (Menin-MLL; [2]) was less than 1 nM.

For `CCN(C(=O)c1cc(F)ccc1Oc1cncnc1N1CC2(CCN(C[C@@H]3CC[C@@H](NS(=O)(=O)C4CCC4)CO3)CC2)C1)C(C)C` [Compound 6, 2-((4-(7-(((2S,5R)-5-(cyclobutanesulfonamido)tetrahydro-2H-pyran-2-yl)methyl)-2,7-diazaspiro[3.5]nonan-2-yl)pyrimidin-5-yl)oxy)-N-ethyl-5-fluoro-N-isopropylbenzamide], the “hERG % Remaining 10 μM” value (hERG) was “+++ (“+++” means ≥66%)”, the “hERG % Remaining 30 μM” value (hERG) was “++ (“++” means ≥33% and <66%)” and the EC50 (Menin-MLL; [1]) was less than 50 nM. It also gave a Ki (Menin-MLL; [2]) of less than 1 nM.

With `Cc1nc(S(=O)(=O)N[C@@H]2CC[C@@H](CN3CCC4(CC3)CN(c3ncncc3Oc3ccc(F)cc3C(=O)N(C(C)C)C(C)C)C4)OC2)co1` [Compound 91, 5-Fluoro-N,N-diisopropyl-2-((4-(7-(((2S,5R)-5-((2-methyloxazole)-4-sulfonamido)tetrahydro-2H-pyran-2-yl)methyl)-2,7-diazaspiro[3.5]nonan-2-yl)pyrimidin-5-yl)oxy)benzamide] the “hERG % Remaining 30 μM” value (hERG) was “++ (“++” means ≥33% and <66%)” and the Ki (Menin-MLL; [2]) was less than 1 nM.

With `CCN(C(=O)c1cc(F)ccc1Oc1cncnc1N1CC2(CCN(C[C@@H]3CC[C@@H](NS(=O)(=O)c4csc(C)n4)CO3)CC2)C1)C(C)C` [Compound 71, N-Ethyl-5-fluoro-N-isopropyl-2-((4-(7-(((2S,5R)-5-((2-methylthiazole)-4-sulfonamido)tetrahydro-2H-pyran-2-yl)methyl)-2,7-diazaspiro[3.5]nonan-2-yl)pyrimidin-5-yl)oxy)benzamide] the “hERG % Remaining 10 μM” value (hERG) was “+++ (“+++” means ≥66%)”, the “hERG % Remaining 30 μM” value (hERG) was “++ (“++” means ≥33% and <66%)” and the EC50 (Menin-MLL; [1]) was less than 50 nM. For the same compound, the Ki (Menin-MLL; [2]) was less than 1 nM.

`C[C@@H]1COC[C@@H](C)N1C(=O)c1cc(F)ccc1Oc1cncnc1N1CC2(CCN(C[C@@H]3CC[C@@H](NS(=O)(=O)NCC4CC4)CO3)CC2)C1` [Compound 158, (Cyclopropylmethyl)({[(3R,6S)-6-{[2-(5-{2-[(3R,5R)-3,5-dimethylmorpholine-4-carbonyl]-4-fluorophenoxy}pyrimidin-4-yl)-2,7-diazaspiro[3.5]nonan-7-yl]methyl}oxan-3-yl]sulfamoyl})amine] was tested, and the “hERG % Remaining 30 μM” value (hERG) was “+++ (“+++” means ≥66%)” and the Ki (Menin-MLL; [2]) was less than 1 nM.

For `CC(C)N(C(=O)c1cc(F)ccc1Oc1cncnc1N1CC2(CCN(C[C@@H]3CC[C@@H](NS(=O)(=O)N(C)C)CO3)CC2)C1)C1CC(F)(F)C1` [Compound 113, N-(3,3-Difluorocyclobutyl)-2-((4-(7-(((2S,5R)-5-((N,N-dimethylsulfamoyl)amino)tetrahydro-2H-pyran-2-yl)methyl)-2,7-diazaspiro[3.5]nonan-2-yl)pyrimidin-5-yl)oxy)-5-fluoro-N-isopropylbenzamide], the “hERG % Remaining 10 μM” value (hERG) was “+++ (“+++” means ≥66%)”, the “hERG % Remaining 30 μM” value (hERG) was “++ (“++” means ≥33% and <66%)” and the EC50 (Menin-MLL; [1]) was less than 50 nM. It also gave a Ki (Menin-MLL; [2]) of less than 1 nM.

In the case of `CC(C)N(C(=O)c1cc(F)ccc1Oc1cncnc1N1CC2(CCN(C[C@@H]3CC[C@@H](NS(=O)(=O)N(C)C(C)C)CO3)CC2)C1)C(C)C` [Compound 89, 5-Fluoro-N,N-diisopropyl-2-((4-(7-(((2S,5R)-5-((N-isopropyl-N-methylsulfamoyl)amino)tetrahydro-2H-pyran-2-yl)methyl)-2,7-diazaspiro[3.5]nonan-2-yl)pyrimidin-5-yl)oxy)benzamide], the “hERG % Remaining 30 μM” value (hERG) is reported as “++ (“++” means ≥33% and <66%)” and the Ki (Menin-MLL; [2]) is reported as less than 1 nM.

With `CC(C)N(C(=O)c1cc(F)ccc1Oc1cncnc1N1CC2(CCN(C[C@@H]3CC[C@@H](NS(=O)(=O)N4CC5COCC5C4)CO3)CC2)C1)C(C)C` (stereo partly drawn) [Compound 224, 5-Fluoro-2-((4-(7-(((2S,5R)-5-((hexahydro-1H-furo[3,4-c]pyrrole)-5-sulfonamido)tetrahydro-2H-pyran-2-yl)methyl)-2,7-diazaspiro[3.5]nonan-2-yl)pyrimidin-5-yl)oxy)-N,N-diisopropylbenzamide] the “hERG % Remaining 30 μM” value (hERG) was “+++ (“+++” means ≥66%)” and the Ki (Menin-MLL; [2]) was less than 1 nM.

For `C[C@@H]1COC[C@@H](C)N1C(=O)c1cc(F)ccc1Oc1cncnc1N1CC2(CCN(C[C@@H]3CC[C@@H](NS(=O)(=O)N4CCC4)CO3)CC2)C1` [Compound 121, N-((3R,6S)-6-((2-(5-(2-((3R,5R)-3,5-Dimethylmorpholine-4-carbonyl)-4-fluorophenoxy)pyrimidin-4-yl)-2,7-diazaspiro[3.5]nonan-7-yl)methyl)tetrahydro-2H-pyran-3-yl)azetidine-1-sulfonamide], the “hERG % Remaining 30 μM” value (hERG) was “+++ (“+++” means ≥66%)” and the Ki (Menin-MLL; [2]) was less than 1 nM.

For `C[C@@H]1COC[C@H](C)N1C(=O)c1cc(F)ccc1Oc1cncnc1N1CC2(CCN(C[C@@H]3CC[C@@H](NS(=O)(=O)N4CCC4)CO3)CC2)C1` [Compound 161, N-((3R,6S)-6-((2-(5-(2-((3R,5S)-3,5-Dimethylmorpholine-4-carbonyl)-4-fluorophenoxy)pyrimidin-4-yl)-2,7-diazaspiro[3.5]nonan-7-yl)methyl)tetrahydro-2H-pyran-3-yl)azetidine-1-sulfonamide], the “hERG % Remaining 30 μM” value (hERG) was “+++ (“+++” means ≥66%)” and the Ki (Menin-MLL; [2]) was less than 1 nM.

In the case of `C[C@@H]1COC[C@@H](C)N1C(=O)c1cc(F)ccc1Oc1cncnc1N1CC2(CCN(C[C@@H]3CC[C@@H](NS(=O)(=O)N4CCC[C@H]4C)CO3)CC2)C1` [Compound 208, (R)-N-((3R,6S)-6-((2-(5-(2-((3R,5R)-3,5-Dimethylmorpholine-4-carbonyl)-4-fluorophenoxy)pyrimidin-4-yl)-2,7-diazaspiro[3.5]nonan-7-yl)methyl)tetrahydro-2H-pyran-3-yl)-2-methylpyrrolidine-1-sulfonamide], the “hERG % Remaining 30 μM” value (hERG) is reported as “+++ (“+++” means ≥66%)” and the Ki (Menin-MLL; [2]) is reported as less than 1 nM.
